# Test results reported in BindingDB's records for doi:10.1021/jm00381a012 (1985).
# Target: T1, Angiotensin-converting enzyme (Oryctolagus cuniculus, UniProt P12822)
# T1 sequence (P12822 whole entry): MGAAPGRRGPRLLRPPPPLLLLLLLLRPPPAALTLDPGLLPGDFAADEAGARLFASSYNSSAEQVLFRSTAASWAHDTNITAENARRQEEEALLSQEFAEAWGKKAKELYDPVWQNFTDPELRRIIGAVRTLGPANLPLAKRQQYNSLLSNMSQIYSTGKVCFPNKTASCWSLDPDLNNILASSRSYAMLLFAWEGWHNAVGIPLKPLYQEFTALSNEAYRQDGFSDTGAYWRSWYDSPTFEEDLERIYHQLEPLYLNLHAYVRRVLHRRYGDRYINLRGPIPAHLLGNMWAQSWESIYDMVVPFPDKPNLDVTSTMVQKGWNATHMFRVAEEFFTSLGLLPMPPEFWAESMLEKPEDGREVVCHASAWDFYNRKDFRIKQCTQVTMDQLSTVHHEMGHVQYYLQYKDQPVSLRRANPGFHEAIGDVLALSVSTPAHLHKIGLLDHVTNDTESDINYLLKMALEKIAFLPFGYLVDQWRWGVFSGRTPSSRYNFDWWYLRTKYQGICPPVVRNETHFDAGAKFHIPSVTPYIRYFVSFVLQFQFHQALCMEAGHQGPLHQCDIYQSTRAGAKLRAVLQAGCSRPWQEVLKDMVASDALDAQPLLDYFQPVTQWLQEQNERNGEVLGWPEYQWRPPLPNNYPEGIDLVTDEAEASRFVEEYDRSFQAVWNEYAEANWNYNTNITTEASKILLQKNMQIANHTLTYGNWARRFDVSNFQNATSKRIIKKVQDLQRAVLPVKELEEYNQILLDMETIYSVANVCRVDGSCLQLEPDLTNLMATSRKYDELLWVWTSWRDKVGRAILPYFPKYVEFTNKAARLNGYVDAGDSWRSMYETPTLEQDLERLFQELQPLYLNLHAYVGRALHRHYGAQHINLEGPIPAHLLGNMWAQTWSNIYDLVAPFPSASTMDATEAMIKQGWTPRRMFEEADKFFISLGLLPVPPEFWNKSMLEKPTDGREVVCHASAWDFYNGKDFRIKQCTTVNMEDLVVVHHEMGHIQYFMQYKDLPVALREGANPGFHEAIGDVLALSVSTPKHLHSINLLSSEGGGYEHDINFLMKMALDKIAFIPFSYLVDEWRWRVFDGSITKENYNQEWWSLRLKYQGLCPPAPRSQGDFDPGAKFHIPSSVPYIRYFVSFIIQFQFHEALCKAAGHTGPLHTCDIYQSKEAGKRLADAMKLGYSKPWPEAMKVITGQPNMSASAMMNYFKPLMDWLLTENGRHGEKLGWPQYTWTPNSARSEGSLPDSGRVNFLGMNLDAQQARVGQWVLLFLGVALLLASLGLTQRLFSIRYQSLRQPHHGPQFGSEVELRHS
# Experiment: ChEBML_34797
row,SMILES,IC50 [µM]
1,CC(C)(C)C(=O)Sc1ccccc1C(=O)N(CC(=O)O)C1CCCC1,> 100
2,CC(=O)Sc1c(C(=O)N(CC(=O)O)C2CCCC2)cccc1C(C)C,> 100
3,O=C(O)CN(C(=O)c1ccc(Cl)cc1S)C1CCCC1,> 100
